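Each compound was tested at five concentrations against cells in 96-well plates for 48 hours. Here, GI50 denotes the concentration required for 50% inhibition of growth. TGI is the concentration that stops growth completely.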
Experiments:
Test in all cases: growth of human tumour cells (NCI), 48 h
XF 498 CNS = system: XF 498 CNS
M19-MEL melanoma = system: M19-MEL melanoma
LXFL 529 NSCLC = system: LXFL 529 NSCLC
DMS 114 small cell lung = system: DMS 114 small cell lung
KM20L2 colon = system: KM20L2 colon
T-47D breast = system: T-47D breast
BT-549 breast = system: BT-549 breast
RXF-631 renal = system: RXF-631 renal
MDA-N = system: MDA-N

Compound | GI50 (T-47D breast) [µM] | TGI (T-47D breast) [µM] | GI50 (BT-549 breast) [µM] | TGI (BT-549 breast) [µM] | other results
COC1OC2COC(c3ccccc3)OC2C(O)C1Br (configuration not stated) | – | – | – | – | TGI (XF 498 CNS): > 100 µM; TGI (M19-MEL melanoma): > 100 µM; TGI (LXFL 529 NSCLC): > 100 µM
O=C(Nc1ccn(CCI)c(=O)n1)c1ccccc1 | – | – | – | – | TGI (M19-MEL melanoma): > 100 µM; TGI (DMS 114 small cell lung): > 100 µM; TGI (KM20L2 colon): > 100 µM; TGI (LXFL 529 NSCLC): > 100 µM
COc1cc2c3c(n(CCCN=[N+]=[N-])c(=O)c2cc1OC)-c1ccc(N(C)C)cc1C3=O | > 100 | > 100 | > 100 | > 100 | –
COc1ccc(Nc2cc(C)nc(N3CCN(c4ccnc5cc(Cl)ccc45)CC3)n2)cc1 | 1.99 | 6.59 | 2.22 | 8.06 | –
O=C(Nc1ccc(I)cc1F)c1cc(Cl)ccc1O | 0.294 | 2.57 | 0.372 | 1.73 | –
CCC(Oc1ccc(OC)c2ccccc(=O)c12)C(=O)O (configuration not stated) | – | – | – | – | TGI (M19-MEL melanoma): > 100 µM; TGI (DMS 114 small cell lung): > 100 µM; TGI (LXFL 529 NSCLC): > 100 µM; TGI (RXF-631 renal): > 100 µM
Cc1cccc(Nc2cnc(N)nc2N)c1 | – | > 100 | – | – | TGI (MDA-N): > 100 µM
O=C(Nc1ccc(Cl)c(Cl)c1)OCCN1c2ccccc2Sc2ccccc21 | – | > 10 | – | > 10 | TGI (MDA-N): > 10 µM
Cc1ccc(-c2nc(N3CCCNCC3)c3oc(-c4ccc(C)cc4)nc3n2)cc1 | 1.94 | 4.17 | 16.3 | 35 | –
O=S(=O)(NCCNc1nccc(-c2c(-c3ccc(F)cc3)nc3sccn23)n1)c1ccccc1 | 1.79 | 27.3 | – | – | –
CC(C)c1cc(OCC(O)CO)cc(C(C)C)c1 (configuration not stated) | – | – | – | – | TGI (XF 498 CNS): > 100 µM; TGI (M19-MEL melanoma): > 100 µM; TGI (DMS 114 small cell lung): > 100 µM; TGI (KM20L2 colon): > 100 µM; TGI (LXFL 529 NSCLC): > 100 µM
CC(C)COC(=O)c1ccc2[nH]c(O)c(C=Nc3ccc(S(N)(=O)=O)cc3)c2c1 | 2.51 | 12.6 | 1.65 | 4 | –
CC(Br)C(=O)Nc1ccc(C(=O)O)c(O)c1 (configuration not stated) | – | > 100 | – | > 100 | TGI (MDA-N): > 100 µM
Cc1c(Sc2ccccc2)[n+](=O)c2cc(Cl)c(Cl)cc2n1[O-] | 36.2 | > 100 | 27.8 | 58.9 | –
COc1ccc(Nc2c3ccccc3nc3[nH]c4ccccc4c23)cc1 | – | – | 13.7 | > 50 | –
O=[N+]([O-])c1ccc(S(=O)(=O)Cc2ccccc2)c2nonc12 | – | 39.8 | – | 33.1 | TGI (MDA-N): 40.9 µM
CN1C(Cl)=NS(=O)(=O)c2ccccc21 | – | > 100 | – | > 100 | TGI (MDA-N): > 100 µM
CCc1nc(N)nc(N)c1-c1ccc(Cl)c(N=CN(C)C)c1 | – | > 100 | – | > 100 | TGI (MDA-N): > 100 µM
O=C1OC(c2ccccc2)=N/C1=C\c1cccc(F)c1 | – | > 100 | – | > 100 | TGI (MDA-N): > 100 µM
C=CS(=O)(=O)CCN1CC1 | – | > 10 | – | > 10 | TGI (MDA-N): > 10 µM
CC1=C(/C=C/C(C)=C/C=C/C(C)=C/CO)C(C)(C)CCC1 | – | 96.2 | – | – | TGI (MDA-N): > 100 µM
ClCc1ccc(Cn2cnc3c(Cl)nc(Cl)nc32)cc1 | 2.18 | 5.44 | 15.8 | 29.8 | –

Compound | GI50 (T-47D breast) [µM] | TGI (T-47D breast) [µM] | GI50 (BT-549 breast) [µM] | TGI (BT-549 breast) [µM] | other results
Cn1c(=O)c(Oc2ccc(F)cc2F)cc2cnc(NCCS(C)(=O)=O)nc21 | > 25 | > 25 | > 25 | > 25 | –
COc1cc2c(c(OC3OC(CO)C(O)C(O)C3O)c1)C(=O)CC(c1ccc(O)cc1)O2 (configuration not stated) | – | > 100 | – | > 100 | TGI (MDA-N): > 100 µM
COc1ccc(-c2nn(-c3cccc(NC(=O)c4ccc(N5CCOCC5)c(C(F)(F)F)c4)c3)cc2-c2ccncc2)cc1Cl | 4.5 | > 50 | 4.14 | > 50 | –
O=C1C2Nc3ccccc3SC2C(=O)N1c1ccccc1C(F)(F)F (configuration not stated) | – | – | – | – | TGI (XF 498 CNS): 53.2 µM; TGI (M19-MEL melanoma): > 100 µM; TGI (DMS 114 small cell lung): > 100 µM; TGI (LXFL 529 NSCLC): > 100 µM
O=C(O)CCSC(=O)Nc1ccc(N=Nc2ccccc2)cc1 | – | – | – | – | TGI (XF 498 CNS): > 100 µM; TGI (DMS 114 small cell lung): > 100 µM; TGI (KM20L2 colon): > 100 µM; TGI (LXFL 529 NSCLC): > 100 µM; TGI (RXF-631 renal): > 100 µM
CN(/N=N/c1nc(OCc2ccccc2)c2[nH]cnc2n1)C(=O)Oc1ccc([N+](=O)[O-])cc1 | 14.2 | 32.7 | 7.35 | 20.4 | –
Cc1cccc2nc3cccc(C(=O)NCCN(C)C)c3nc12 | – | – | – | – | TGI (M19-MEL melanoma): 3.25 µM; TGI (DMS 114 small cell lung): 3.13 µM
COc1ccc(OC)c(Nc2nc(-c3c(C)nc4sccn34)cs2)c1 | 5.43 | > 100 | 11 | > 100 | –
C=C1c2c(Cl)ccc(O)c2C(O)=C2C(=O)[C@]3(O)C(O)=C(C(N)=O)C(=O)[C@@H](N(C)C)[C@@H]3[C@@H](O)[C@H]12 | 1.07 | 4.06 | 1.07 | 3.24 | –
O=C(NS(=O)(=O)c1ccccc1)C(Cc1ccccc1)C(Cc1ccccc1)C(=O)NS(=O)(=O)c1ccccc1 (configuration not stated) | – | – | – | – | TGI (M19-MEL melanoma): > 100 µM; TGI (DMS 114 small cell lung): > 100 µM; TGI (KM20L2 colon): > 100 µM; TGI (LXFL 529 NSCLC): > 100 µM
CN1CC(=O)N(C)c2nc[nH]c2C1=O | – | – | – | – | TGI (XF 498 CNS): > 100 µM; TGI (M19-MEL melanoma): > 100 µM; TGI (DMS 114 small cell lung): > 100 µM; TGI (LXFL 529 NSCLC): > 100 µM; TGI (RXF-631 renal): > 100 µM
COC(=O)[C@@H](C)C[C@H](Cc1ccccc1)NC(=O)c1csc([C@@H](C[C@H](C(C)C)N(C)C(=O)[C@H](C)NC(=O)[C@H]2CCCCN2C)OC(C)=O)n1 | – | – | 0.979 | 17.5 | –
CC12Oc3ccc4ccccc4c3CC1Cc1c(ccc3ccccc13)O2 (configuration not stated) | – | – | – | – | TGI (M19-MEL melanoma): > 100 µM; TGI (DMS 114 small cell lung): > 100 µM; TGI (KM20L2 colon): > 100 µM; TGI (LXFL 529 NSCLC): > 100 µM
CCn1c2ccccc2c2cc(C(O)c3cccc4ncccc34)ccc21 (configuration not stated) | – | – | 0.0702 | 15.6 | –
O=C1OC(OCC#CCOC2OC(=O)C(Cl)=C2Cl)C(Cl)=C1Cl (configuration not stated) | – | 36.7 | – | – | –
Cn1cnc([N+](=O)[O-])c1Sc1ncn[nH]1 | 17 | > 100 | > 100 | > 100 | –
CC1(C)OC(=O)C=C([O-])O1.CC1(C)OC(=O)C=C([O-])O1.CC[O-].CC[O-].[Ti+4] | – | – | – | – | GI50 (M19-MEL melanoma): > 100 µM; TGI (M19-MEL melanoma): > 100 µM; GI50 (DMS 114 small cell lung): > 100 µM; TGI (DMS 114 small cell lung): > 100 µM; GI50 (KM20L2 colon): > 100 µM; TGI (KM20L2 colon): > 100 µM; GI50 (LXFL 529 NSCLC): > 100 µM; TGI (LXFL 529 NSCLC): > 100 µM
CCN(CC)CCOc1ccc(C(=O)/C=C\c2ccc(Cl)cc2Cl)cc1 | 11.9 | 33.6 | 5.83 | 18.2 | –
O=C(CC1C(=O)Nc2ccccc2S1=O)Nc1ccc(Cl)cc1 (configuration not stated) | – | – | – | – | TGI (KM20L2 colon): > 100 µM; TGI (LXFL 529 NSCLC): > 100 µM
O=C1OC(CN2CCOCC2)CN1/N=C/c1ccc([N+](=O)[O-])o1 (configuration not stated) | – | > 100 | – | > 100 | –
C=C1[C@@H]([C@@]2(C)C=CC(=O)C(C)(C)[C@@H]2CC(=O)OC)CC[C@@]2(C)C(c3ccoc3)OC(=O)[C@H]3O[C@]132 (some centres not stated) | – | > 100 | – | > 100 | TGI (MDA-N): > 100 µM
CC(C)CCN[C@@H]1CCc2cc(O)c(N3CC(=O)NS3(=O)=O)c(F)c2C1 | > 100 | > 100 | 5.44 | > 100 | –
